Laboratory results: patent publication US4070470A, “Platelet aggregation inhibiting carbostyrils, their compositions and method of use” (Otsuka Pharmaceutical Co., Ltd., priority 1974, dated 1978)

Assays:
[1] = system: collagen-induced aggregation in rabbit platelet; assay: Inhibition effect on collagen-induced aggregation in rabbit platelet; assay type: cell-based; details: rabbit platelet (PRP); for inhibition at 100 µM / inhibition at 1 µM / inhibition at 0.01 µM / inhibition at 10 µM: Oryctolagus cuniculus, Platelet; for inhibition at 100 µM: 10^-4 M test compound solution; for inhibition at 0.01 µM: 10^-8 M test compound solution
Procedure: (§1) The aggregation inhibitory activity was determined using an AG-II type aggregometer (made by Bryston Manufacturing Co.). A blood sample was withdrawn from rabbits as a mixture of sodium citrate and whole blood in a proportion of 1 : 9 by volume and centrifuged at 1000 rpm for 10 minutes to obtain a platelet rich plasma (PRP). The resulting PRP was separated, and the remaining blood sample was further centrifuged at 3000 rpm for 15 minutes to obtain a platelet poor plasma (PPP).
(§2) The number of platelets in the PRP was counted in accordance with the Brecher-Clonkite Method, and the PRP was diluted with the PPP to prepare a PRP sample containing platelets in an amount of 300,000/[…] for an adenosine diphosphate (ADP)-induced aggregation test and a PRP sample containing platelets in an amount of 450,000/[…] for a collagen-induced aggregation test.
(§3) 0.01 ml of a solution of a test compound having a predetermined concentration (as shown in the Tables below) was then added to 0.6 ml of the PRP sample obtained above and the mixture was incubated at a temperature of 37° C for 1 minute. Then 0.07 ml of an ADP or collagen solution was added to the mixture. The mixture was then subjected to a transmittance determination and changes in the transmittance of the mixture were recorded using aggregometer at a stirrer rotation rate of 1100 rpm. In this test, Auren Beronal buffer (pH 7.35) was used for the preparation of solutions of ADP, collagen and the test compounds. ADP was adjusted to a concentration of 7.5 × 10^-5 M, and the collagen solution was prepared by triturating 100 mg of collagen with 5 ml of the above buffer and the supernatant obtained was used as a collagen inducer. Adenosine and acetylsalicyclic acid were used as controls for the ADP-induced aggregation test and the collagen-induced aggregation test, respectively. The aggregation inhibitory activity was determined in terms of the percent inhibition (%) with respect to the aggregation ratio of controls. The aggregation ratio can be calculated by the following equation: [formula] Wherein: "a" is the optical density of the PRP,
(§4) "b" is the optical density of the PRP having incorporated therein a test compound and an aggregation inducer, and
(§5) "c" is the optical density of the PPP.

[2] = system: ADP-induced aggregation in rabbit platelet; assay: Inhibition effect on ADP-induced aggregation in rabbit platelet; assay type: cell-based; details: rabbit platelet (PRP); for inhibition at 100 µM / inhibition at 1 µM / inhibition at 0.01 µM / inhibition at 10 µM / inhibition at 0.1 µM: Oryctolagus cuniculus, Platelet; for inhibition at 0.01 µM: 10^-8 M test compound solution
Procedure: as §1, §2, §3, §4, §5

[3] = Toxicity of benzcycloamide derivatives in mouse (LD50); details: in vivo
Source text: All the benzcycloamide derivatives represented by the aforesaid general formulas (I) are novel compounds having excellent platelet aggregation-inhibiting effects and are useful as preventives for thrombosis. […] Compounds tested: [drawing 17]

blood platelets = details: at low concentrations; cited from earlier work
thrombosis = details: administered orally or intravenously to mammals including humans; cited from earlier work

Row | SMILES | inhibition at 100 µM [1] [%] | inhibition at 1 µM ([1]; 10^-6 M test compound solution) [%] | inhibition at 0.01 µM [1] [%] | inhibition at 100 µM ([2]; 10^-4 M test compound solution) [%] | inhibition at 1 µM ([2]; 10^-6 M test compound solution) [%] | inhibition at 10 µM ([1]; 10^-5 M test compound solution) [%] | inhibition at 10 µM ([2]; 10^-5 M test compound solution) [%] | further results
1 | CCOC(=O)C(C)Oc1cccc2c1NC(=O)CC2 (stereo not drawn) [Compound M] | 5 | 2 | 7 | 3 | 11 |  |  | inhibition at 0.01 µM [2]: 11%
2 | O=C(O)CCCCCCOc1ccc2c(c1)CCC(=O)N2 [L] | 15 | 2 |  | 13 | 7 | 14 | 8 | inhibition at 0.1 µM ([2]; 10^-7 M test compound solution): -10%
3 | CCOC(=O)CCCCCCOc1ccc2c(c1)CCC(=O)N2 [K] | 31 | 6 |  | 37 | 10 | 13 | 15 | inhibition at 0.1 µM ([2]; 10^-7 M test compound solution): 7%; LD50 ([3]; Female mouse): 500 to 1000 mg/kg; LD50 ([3]; Male mouse): 750 to 1000 mg/kg
4 | CCOC(=O)CCCOc1ccc2c(c1)CCC(=O)N2 [J] |  |  |  |  |  |  |  | Inhibition effect on collagen-induced aggregation ([1]; 10^-5 M test compound solution): 86%; Inhibition effect on collagen-induced aggregation ([1]; 10^-6 M test compound solution): 18%; Inhibition effect on ADP-induced aggregation ([2]; 10^-4 M test compound solution): 100%; Inhibition effect on ADP-induced aggregation ([2]; 10^-5 M test compound solution): 90%; Inhibition effect on ADP-induced aggregation ([2]; 10^-6 M test compound solution): 25%; Inhibition effect on ADP-induced aggregation ([2]; 10^-7 M test compound solution): -4%
5 | CCOC(=O)C(C)Oc1ccc2[nH]c(=O)ccc2c1 (stereo not drawn) [B] | 67 | -6 | 0 | 86 | -6 | 12 | 54 | inhibition at 0.01 µM [2]: 14%
6 | CCOC(=O)C(C)Oc1ccc2c(c1)CCC(=O)N2 (stereo not drawn) [A] | 71 | 2 | 0 | 57 | 5 | 20 | 25 | 
7 | CCCCCOC(=O)CCCOc1ccc2c(c1)CCC(=O)N2 [I] | 48 | 6 |  | 82 | 0 | 22 | 58 | inhibition at 0.1 µM ([2]; 10^-7 M test compound solution): 8%
8 | CCOC(=O)C(C)Oc1ccc2c(c1)CCC(=O)N2C (stereo not drawn) [C] | 36 | 0 | 9 | 36 | 0 |  |  | inhibition at 0.01 µM [2]: 9%
9 | CCCCCOC(=O)C(C)Oc1ccc2c(c1)CCC(=O)N2 (stereo not drawn) [F] | 88 | 0 |  | 100 | 20 | 8 | 79 | 
10 | CCOC(=O)CCCOc1ccc2c(c1)CCC(=O)N2 [E] | 92 |  |  | 100 |  |  | 97 | LD50 ([3]; Female mouse): > 1000 mg/kg; LD50 ([3]; Male mouse): > 1000 mg/kg
11 | CCOC(=O)CCCOc1cccc2c1CCC(=O)N2 [H] | 90 | 5 |  | 65 | 2 | 8 | 18 | 
12 | CC(C)OC(=O)C(C)Oc1ccc2[nH]c(=O)ccc2c1 (stereo not drawn) [G] | 55 | 3 |  | 74 | 7 | 25 | 38 | 
13 | CC(C)(C)NCC(O)COc1cccc2c1CCC(=O)N2 (stereo not drawn) [5-(2'-hydroxy-3-tert-butylamino)-propoxy-3,4-dihydrocarbostyril] |  |  |  |  |  |  |  | inhibition of the aggregation of blood platelets (blood platelets): at low concentrations could specifically inhibit the aggregation of blood platelets; preventing and treating thrombosis (thrombosis): very effective for preventing and treating thrombosis
14 | CCOC(=O)C(C)Oc1ccc2c(c1)NC(=O)CC2 (stereo not drawn) [D] | 2 | 8 | 3 | -18 | 14 |  |  | inhibition at 0.01 µM [2]: 14%
